ChEMBL document CHEMBL1833788, “Selective water-soluble gelatinase inhibitor prodrugs” (J Med Chem, 2011)

Columns and labels:
[1] = Chemical stability of the compound in aqueous solution at 10 mg/ml by HPLC after 1 month; assay type: physicochemical; conditions: buffer, 730.5 h
[2] = Solubility of the compound in aqueous solution at 10 mg/ml by UV spectroscopy; assay type: physicochemical
[3] = tested on: Blood; test: Half life in human blood at 10 mM by reversed-phase HPLC/UV analysis; assay type: ADME, tissue-based; conditions: 10000 µM
[4] = tested on: Plasma; test: Half life in human plasma at 10 mM by reversed-phase HPLC/UV analysis; assay type: ADME, cell-free; conditions: 10000 µM
[5] = tested on: Plasma; test: Metabolic stability of the compound in human plasma at 10 mM after 2 mins by reversed-phase HPLC/UV analysis; assay type: ADME, cell-free; conditions: 10000 µM
[6] = Chemical stability of the compound in aqueous solution at 10 mg/ml by HPLC up to 2 hrs; assay type: physicochemical; conditions: buffer
[7] = biological target: Matrix metalloproteinase-9 (Homo sapiens, UniProt P14780)
Description: Inhibition of human recombinant MMP9 catalytic domain assessed as hydrolysis of MOCAcPLGLA2pr(Dnp)AR-NH2 by fluorescence spectrofluorometry

[8] = tested on: Blood; test: Prodrug conversion in human blood assessed as release of 4-[4-((Thiiran-2-yl)methylsulphonyl)phenoxy]benzamine at 10 mM after 30 mins by reversed-phase HPLC/UV analysis; assay type: ADME, tissue-based; conditions: 0.5 h, 10000 µM
[9] = tested on: Mus musculus; test: Terminal half life in C57B1/6 mouse plasma assessed as parent compound level at […], iv administered as single bolus dose; assay type: ADME, organism-based; conditions: in vivo
[10] = tested on: Mus musculus; test: Prodrug conversion in C57B1/6 mouse assessed as N-(4-(4-(thiiran-2-ylmethylsulfonyl)phenoxy)phenyl)acetamide level in plasma at […], iv administered as single bolus dose after 11 to 12 mins by reversed-phase LC/MS analysis; conditions: in vivo
[11] = tested on: Mus musculus; test: Prodrug conversion in C57B1/6 mouse assessed as N-(4-(4-(thiiran-2-ylmethylsulfonyl)phenoxy)phenyl)acetamide level in plasma at […], iv administered as single bolus dose after 7 to 8 mins by reversed-phase LC/MS analysis; conditions: in vivo
[12] = tested on: Mus musculus; test: Prodrug conversion in C57B1/6 mouse assessed as N-(4-(4-(thiiran-2-ylmethylsulfonyl)phenoxy)phenyl)acetamide level in plasma at […], iv administered as single bolus dose after 2 to 3 mins by reversed-phase LC/MS analysis; conditions: in vivo
[13] = tested on: Mus musculus; test: Distribution half life in C57B1/6 mouse plasma assessed as N-(4-(4-(thiiran-2-ylmethylsulfonyl)phenoxy)phenyl)acetamide level at […], iv administered as single bolus dose; assay type: ADME, organism-based; conditions: in vivo
[14] = tested on: Mus musculus; test: AUC (0 to infinity) in C57B1/6 mouse plasma assessed as parent compound level at […], iv administered as single bolus dose; assay type: ADME, organism-based; conditions: in vivo
[15] = tested on: Mus musculus; test: Prodrug conversion in C57B1/6 mouse assessed as N-(4-(4-(thiiran-2-ylmethylsulfonyl)phenoxy)phenyl)acetamide level in plasma at […], iv administered as single bolus dose after 62 to 66 mins by reversed-phase LC/MS analysis; conditions: in vivo
[16] = tested on: Mus musculus; test: Terminal half life in C57B1/6 mouse plasma assessed as N-(4-(4-(thiiran-2-ylmethylsulfonyl)phenoxy)phenyl)acetamide level at […], iv administered as single bolus dose; assay type: ADME, organism-based; conditions: in vivo, BLD = below limit of detection
[17] = tested on: Mus musculus; test: AUC (0 to last) in C57B1/6 mouse plasma assessed as N-(4-(4-(thiiran-2-ylmethylsulfonyl)phenoxy)phenyl)acetamide level at […], iv administered as single bolus dose; assay type: ADME, organism-based; conditions: in vivo
[18] = tested on: Mus musculus; test: Prodrug conversion in C57B1/6 mouse assessed as N-(4-(4-((Thiiran-2-ylmethyl)sulfonyl)phenoxy)phenyl) hydroxylamine level in plasma at […], iv administered as single dose by reversed-phase LC/MS analysis; assay type: ADME, organism-based; conditions: in vivo
[19] = tested on: Mus musculus; test: Prodrug conversion in C57B1/6 mouse assessed as N-(4-(4-((Thiiran-2-ylmethyl)sulfonyl)phenoxy)phenyl) hydroxylamine level in urine at […], iv administered as single dose by reversed-phase LC/MS analysis; assay type: ADME, organism-based; conditions: in vivo
[20] = tested on: Mus musculus; test: Volume of distribution in C57B1/6 mouse plasma assessed as parent compound level at […], iv administered as single bolus dose; assay type: ADME, organism-based; conditions: in vivo
[21] = tested on: Mus musculus; test: AUC (0 to infinity) in C57B1/6 mouse plasma assessed as N-(4-(4-(thiiran-2-ylmethylsulfonyl)phenoxy)phenyl)acetamide level at […], iv administered as single bolus dose; assay type: ADME, organism-based; conditions: in vivo, BLD = below limit of detection
[22] = tested on: Mus musculus; test: Clearance in C57B1/6 mouse plasma assessed as parent compound level at […], iv administered as single bolus dose; assay type: ADME, organism-based; conditions: in vivo
[23] = tested on: Mus musculus; test: Prodrug conversion in C57B1/6 mouse assessed as N-(4-(4-(thiiran-2-ylmethylsulfonyl)phenoxy)phenyl)acetamide level in plasma at […], iv administered as single bolus dose after 30 mins by reversed-phase LC/MS analysis; conditions: in vivo, 0.5 h
[24] = tested on: Mus musculus; test: Prodrug conversion in C57B1/6 mouse assessed as N-(4-(4-(thiiran-2-ylmethylsulfonyl)phenoxy)phenyl)acetamide level in plasma at […], iv administered as single bolus dose after 120 to 123 mins by reversed-phase LC/MS analysis; conditions: in vivo
[25] = tested on: Liver microsomes; test: Half life in human liver microsomes at 100 uM by reversed-phase HPLC/UV analysis; assay type: ADME, Microsome
[26] = tested on: Liver microsomes; test: Prodrug conversion in rat liver microsomes assessed as release of 4-(4-aminophenoxy)benzenesulfinic acid after 60 mins by HPLC/MS analysis; assay type: ADME, Microsome; conditions: 1 h
[27] = tested on: Liver microsomes; test: Prodrug conversion in rat liver microsomes assessed as release of N-(4-(4-(thiiran-2-ylmethylsulfonyl)phenoxy)phenyl)acetamide after 60 mins by HPLC/MS analysis; assay type: ADME, Microsome; conditions: 1 h
[28] = tested on: Liver; test: Half life in mouse liver microsomes at 100 uM by reversed-phase HPLC/UV analysis; assay type: ADME, Microsome
[29] = tested on: Liver microsomes; test: Prodrug conversion in rat liver microsomes assessed as release of 4-(4-((S)-2-amino-5-guanidinopentanamido)phenoxy)benzenesulfinic acid after 60 mins by HPLC/MS analysis; assay type: ADME, Microsome; conditions: 1 h
[30] = tested on: Salmonella typhimurium; test: Induction of mutagenicity in Salmonella Typhimurium TA98 at 1 mg/mL after 48 hrs by Ames assay in presence of rat liver S9 metabolic activation system; assay type: toxicity, organism-based; conditions: salmonella enterica subsp. enterica serovar typhimurium, s9, 48 h
[31] = species: Homo sapiens; test: Hepatic blood flow in human; assay type: ADME, organism-based, Liver
[32] = tested on: Salmonella typhimurium; test: Induction of mutagenicity in Salmonella Typhimurium TA7001 to TA7006 at 1 mg/mL after 48 hrs by Ames assay in presence of rat liver S9 metabolic activation system; assay type: toxicity, organism-based; conditions: salmonella enterica subsp. enterica serovar typhimurium, s9, 48 h
[33] = tested on: Salmonella typhimurium; test: Induction of mutagenicity in Salmonella Typhimurium TA98 at 1 mg/mL after 48 hrs by Ames assay in absence of rat liver S9 metabolic activation system; assay type: toxicity, organism-based; conditions: salmonella enterica subsp. enterica serovar typhimurium, s9, 48 h
[34] = tested on: Salmonella typhimurium; test: Induction of mutagenicity in Salmonella Typhimurium TA7001 to TA7006 at 1 mg/mL after 48 hrs by Ames assay in absence of rat liver S9 metabolic activation system; assay type: toxicity, organism-based; conditions: salmonella enterica subsp. enterica serovar typhimurium
[35] = species: Mus musculus; test: Hepatic blood flow in mouse; assay type: ADME, organism-based, Liver
[36] = tested on: Liver microsomes; test: Half life in rat liver microsomes at 100 uM by reversed-phase HPLC/UV analysis; assay type: ADME, Microsome
[37] = species: Rattus norvegicus; test: Hepatic blood flow in rat; assay type: ADME, organism-based, Liver

Matrix metalloproteinase-9, sequence (P14780 whole entry): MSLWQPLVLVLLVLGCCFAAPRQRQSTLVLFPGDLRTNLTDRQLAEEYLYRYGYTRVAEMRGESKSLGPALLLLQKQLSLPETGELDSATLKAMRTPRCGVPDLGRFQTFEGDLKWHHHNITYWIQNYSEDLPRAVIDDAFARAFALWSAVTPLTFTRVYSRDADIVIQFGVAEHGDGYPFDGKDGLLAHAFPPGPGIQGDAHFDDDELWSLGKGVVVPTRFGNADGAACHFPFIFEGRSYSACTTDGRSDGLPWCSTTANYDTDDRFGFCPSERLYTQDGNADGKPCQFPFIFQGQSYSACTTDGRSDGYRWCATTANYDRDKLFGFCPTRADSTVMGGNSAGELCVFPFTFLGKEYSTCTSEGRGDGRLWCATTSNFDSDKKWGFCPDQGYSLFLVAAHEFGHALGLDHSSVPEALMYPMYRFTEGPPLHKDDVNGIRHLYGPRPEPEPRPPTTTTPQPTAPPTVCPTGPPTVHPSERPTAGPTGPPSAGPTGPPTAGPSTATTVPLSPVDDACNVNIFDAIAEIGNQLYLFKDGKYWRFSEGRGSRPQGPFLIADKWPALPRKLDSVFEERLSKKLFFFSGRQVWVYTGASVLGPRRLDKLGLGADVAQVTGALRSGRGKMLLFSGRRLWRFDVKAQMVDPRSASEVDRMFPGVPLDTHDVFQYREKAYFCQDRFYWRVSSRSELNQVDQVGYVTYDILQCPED

Structure (SMILES): N=C(N)NCCC[C@H](NC(=O)[C@@H](N)CCCNC(=N)N)C(=O)Nc1ccc(Oc2ccc(S(=O)(=O)CC3CS3)cc2)cc1 (stereo not given in full)
- Stability [1]: Stable
- solubility [2]: > 10000 µg/mL
- t1/2 [3]: 5.9 min
- t1/2 [4]: 11.8 min

Structure (SMILES): N=C(N)NCCC[C@H](NC(=O)[C@@H](N)CCCNC(=N)N)C(=O)Oc1ccc(Oc2ccc(S(=O)(=O)CC3CS3)cc2)cc1 (stereo not given in full)
- Stability [5]: Unstable
- solubility [2]: > 10000 µg/mL
- Stability [6]: Unstable

Structure (SMILES): NCCCC[C@H](N)C(=O)Oc1ccc(Oc2ccc(S(=O)(=O)CC3CS3)cc2)cc1 (stereo not given in full)
- Stability [5]: Unstable
- solubility [2]: > 10000 µg/mL
- Stability [6]: Unstable

Structure (SMILES): N[C@@H](CCC(=O)O)C(=O)Nc1ccc(Oc2ccc(S(=O)(=O)CC3CS3)cc2)cc1 (stereo not given in full)
- Stability [1]: Stable
- solubility [2]: > 10000 µg/mL
- t1/2 [3]: 27.9 min
- Ki [7]: 4.3 µM
- t1/2 [4]: 32.8 min
- Drug metabolism [8]: Active

Structure (SMILES): Cl.Nc1ccc(Oc2ccc(S(=O)(=O)CC3CS3)cc2)cc1 (stereo not given)
- beta t1/2 [9]: 21 min
- Drug metabolism [10]: 0.15 µM
- Drug metabolism [11]: 0.192 µM
- Drug metabolism [12]: 0.197 µM
- alphat1/2 [13]: 5.1 min
- AUC [14]: 221 µM·min
- Drug metabolism [15]: 0.0273 µM
- beta t1/2 [16]: BLD
- AUClast [17]: 7.71 µM·min
- Drug metabolism [18]: Not Active
- Drug metabolism [19]: Not Active
- Vd [20]: 0.532 L/kg
- AUC [21]: BLD
- CL [22]: 87.5 mL/min/kg
- Drug metabolism [23]: 0.0958 µM
- Drug metabolism [24]: 0.00277 µM

Structure (SMILES): N=C(N)NCCC[C@H](N)C(=O)Nc1ccc(Oc2ccc(S(=O)(=O)CC3CS3)cc2)cc1 (stereo not given in full)
- Stability [1]: Stable
- t1/2 [25]: > 60 min
- Drug metabolism [26]: Active
- Drug metabolism [27]: Active
- t1/2 [28]: > 60 min
- solubility [2]: > 10000 µg/mL
- Drug metabolism [29]: Active
- Activity [30]: Non-toxic
- t1/2 [3]: 25.4 min
- QH [31]: 21 mL/min/kg
- Activity [32]: Non-toxic
- t1/2 [4]: 29.5 min
- Activity [33]: Non-toxic
- Drug metabolism ([8]; TDE = time-dependent effect): tde
- Activity [34]: Non-toxic
- QH [35]: 86 mL/min/kg
- t1/2 [36]: 59.3 min
- QH [37]: 66 mL/min/kg
